Reference: ChEMBL document CHEMBL1201862, “PubChem BioAssay data set” (2004)
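96-well plates; 48 h exposure; 5 concentrations. Endpoints by linear interpolation between flanking doses. Not reached: highest tested concentration assigned. Here, GI50 denotes the concentration required for 50% inhibition of growth.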 Activity calls are given as the source filed them. Rule as the data show it: active = GI50 up to about 1.1 µM and inactive = higher.

What was measured:
Experiment in all cases: growth of human tumour cells (NCI), 48 h
[1] = system: RXF 393
[2] = system: HCT-15
[3] = system: A549
[4] = system: SR
[5] = system: T47D
[6] = system: MDA-MB-231
[7] = system: HOP-62
[8] = system: SNB-75
[9] = system: NCI-H460
[10] = system: NCI-H23
[11] = system: BT-549
[12] = system: KM12
[13] = system: SF-268
[14] = system: 786-0
[15] = system: LOX IMVI
[16] = system: RPMI-8226
[17] = system: Hs-578T

| Compound | GI50 [1] | GI50 [2] | GI50 [3] | GI50 [4] | GI50 [5] | GI50 [6] | GI50 [7] | GI50 [8] | GI50 [9] | GI50 [10] | GI50 [11] | GI50 [12] | GI50 [13] | GI50 [14] | GI50 [15] | GI50 [16] | GI50 [17] |
| --- | --- | --- | --- | --- | --- | --- | --- | --- | --- | --- | --- | --- | --- | --- | --- | --- | --- |
| COc1ccc(/C=C/C(=O)c2cc(C(C)(C)C)c(O)c(C(C)(C)C)c2)cc1OC | 2.86 µM (inactive) | 5.68 µM | 8.59 µM (inactive) | 0.551 µM (active) | 3.29 µM (inactive) | 6.4 µM (inactive) | 23 µM (inactive) | 3.01 µM (inactive) | 5.52 µM (inactive) | 12.1 µM (inactive) | 5.24 µM (inactive) | 4.36 µM (inactive) | 17.9 µM (inactive) | 8.67 µM (inactive) | 8.75 µM (inactive) | 2.56 µM (inactive) | 17.8 µM (inactive) |
| S=C1CC(c2ccc(Cl)cc2)Sc2ccccc2N1 (stereo not drawn) | 16.2 µM (inactive) | 90.8 µM | 55.5 µM (inactive) | 33.3 µM (inactive) | 40.4 µM (inactive) | 30.4 µM (inactive) | 16.4 µM (inactive) | > 10 µM (inactive) | 60 µM (inactive) | 37.2 µM (inactive) | 21.1 µM (inactive) | 45.7 µM (inactive) | 24.7 µM (inactive) | 34 µM (inactive) | 40.8 µM (inactive) | 24.3 µM (inactive) | 11.9 µM (inactive) |
| O=C(N/N=C\c1c(O)ccc2ccccc12)c1ccncc1 | 0.383 µM (active) | 0.0991 µM | 0.789 µM (active) | 0.558 µM (active) | 2.49 µM (inactive) | 0.254 µM (active) | 1.31 µM (inactive) | 2.75 µM (inactive) |  | 1.53 µM (inactive) | 0.927 µM (active) | 2.7 µM (inactive) | 0.341 µM (active) | 0.2 µM (active) | 0.301 µM (active) | 0.364 µM (active) | > 15.3 µM (inactive) |
| CCOC(=O)CON=c1c2ccccc2ccc2ccccc12 | > 100 µM (inactive) | > 100 µM | > 100 µM (inactive) | > 100 µM (inactive) | > 100 µM (inactive) | > 100 µM (inactive) | > 100 µM (inactive) | > 100 µM (inactive) | > 100 µM (inactive) | > 100 µM (inactive) | > 100 µM (inactive) | > 100 µM (inactive) | > 100 µM (inactive) | > 100 µM (inactive) | > 100 µM (inactive) | > 100 µM (inactive) | > 100 µM (inactive) |
| O=c1[nH]c(=O)n(C2CC(O)C(CO)O2)c2nc3ccc4ccccc4c3nc12 (stereo not drawn) | 56.6 µM (inactive) | 62.2 µM | > 100 µM (inactive) | 24.9 µM (inactive) | 93.8 µM (inactive) | 26.9 µM (inactive) | 32.4 µM (inactive) | 52.8 µM (inactive) | 21.3 µM (inactive) | > 100 µM (inactive) | 66.4 µM (inactive) | > 100 µM (inactive) | 55.8 µM (inactive) | 74.3 µM (inactive) | 35.4 µM (inactive) | 22.8 µM (inactive) | 55.5 µM (inactive) |
| CCOC(=O)CCC(NC(=O)c1ccc(OCc2nc3cc(C(F)(F)F)ccc3nc2-c2ccccc2)cc1)C(=O)OCC (stereo not drawn) | 85.7 µM (inactive) | 68.2 µM | > 100 µM (inactive) | 16.4 µM (inactive) | 20.4 µM (inactive) | > 100 µM (inactive) |  | 4.07 µM (inactive) | 52.1 µM (inactive) | 85.3 µM (inactive) | 56.6 µM (inactive) | 29 µM (inactive) | 37.3 µM (inactive) | > 100 µM (inactive) | > 100 µM (inactive) | 43.9 µM (inactive) | 35.8 µM (inactive) |
| CC1CN(CCO)CC(C)O1 (stereo not drawn) | > 100 µM (inactive) | > 100 µM | > 100 µM (inactive) | > 100 µM (inactive) | > 100 µM (inactive) | > 100 µM (inactive) | > 100 µM (inactive) | > 100 µM (inactive) | > 100 µM (inactive) | > 100 µM (inactive) | > 100 µM (inactive) | > 100 µM (inactive) | > 100 µM (inactive) | > 100 µM (inactive) |  | > 100 µM (inactive) | > 100 µM (inactive) |
| C(/c1ccco1)=c1/nc(-c2ccccc2)n2c1nc1ccccc12 | 20.2 µM (inactive) | 97.3 µM | 50 µM (inactive) | 11.4 µM (inactive) | 1.08 µM (active) | 16.5 µM (inactive) | 2.05 µM (inactive) |  | 39.2 µM (inactive) | 35.2 µM (inactive) | 15.8 µM (inactive) | 11.2 µM (inactive) | 31.4 µM (inactive) | 11 µM (inactive) | 42.4 µM (inactive) | 11.2 µM (inactive) | 49.1 µM (inactive) |
| CSC1(C(=O)O)C2CCC3C2CCC31 (stereo not drawn) | > 100 µM (inactive) | > 100 µM | > 100 µM (inactive) | > 100 µM (inactive) | > 100 µM (inactive) | > 100 µM (inactive) | > 100 µM (inactive) | > 100 µM (inactive) | 62.1 µM (inactive) | > 100 µM (inactive) | > 100 µM (inactive) | > 100 µM (inactive) | > 100 µM (inactive) | > 100 µM (inactive) | > 100 µM (inactive) | > 100 µM (inactive) | > 100 µM (inactive) |
| [N-]=[N+]=Nc1c([N+](=O)[O-])c(=O)n2c3c(cccc13)CCC2 |  | 6.44 µM | 35.9 µM (inactive) | 2.27 µM (inactive) | 5.42 µM (inactive) | 10.6 µM (inactive) | > 100 µM (inactive) | 19.4 µM (inactive) | 17.8 µM (inactive) | 16.1 µM (inactive) | 18.4 µM (inactive) | 17 µM (inactive) | 13.6 µM (inactive) | 17.1 µM (inactive) | 14.4 µM (inactive) | 3.15 µM (inactive) | 26.2 µM (inactive) |
| Cc1c2oc(=O)c(C#N)cc2c2ccccn12 | > 100 µM (inactive) | 89.9 µM | > 100 µM (inactive) | > 100 µM (inactive) | > 100 µM (inactive) | > 100 µM (inactive) |  | > 100 µM (inactive) | 32.5 µM (inactive) | 7.64 µM (inactive) | 25.8 µM (inactive) | 27.6 µM (inactive) | > 100 µM (inactive) | > 100 µM (inactive) | 71.9 µM (inactive) | > 100 µM (inactive) | > 100 µM (inactive) |
| CCCc1nc2c(n1CC)C(=O)c1ccccc1C2=O | 26.9 µM (inactive) | 28.3 µM | 46.5 µM (inactive) | 42.3 µM (inactive) | 28.5 µM (inactive) | 79.6 µM (inactive) | > 100 µM (inactive) | 24.8 µM (inactive) | 37.2 µM (inactive) | 39.4 µM (inactive) | 79.8 µM (inactive) | 40.3 µM (inactive) | 45.5 µM (inactive) | > 100 µM (inactive) |  | 31.3 µM (inactive) | > 100 µM (inactive) |
| CC1=C[C@H](C[C@]2(C)c3c(c4c(C)cccc4oc3=O)O[C@@H]2C)OC1=O |  | 18.3 µM | > 100 µM (inactive) | 22.4 µM (inactive) | 50.8 µM (inactive) | 40.2 µM (inactive) | > 100 µM (inactive) | > 100 µM (inactive) | > 100 µM (inactive) | 65.5 µM (inactive) | 23.4 µM (inactive) | > 100 µM (inactive) | 24.4 µM (inactive) | 22.8 µM (inactive) | 34.3 µM (inactive) | 0.0778 µM (active) | 63.1 µM (inactive) |
